Laboratory results as given in ChEMBL document CHEMBL3046853, “Synthesis, antimicrobial evaluation, ot-QSAR and mt-QSAR studies of 2-amino benzoic acid derivatives” (2012).
Activity calls are given as the source filed them. The rule behind the calls is not given here.

Assays:
Staphylococcus aureus [1] = assay: Antibacterial activity against Staphylococcus aureus after 24 hr by serial dilution technique; format: functional
Aspergillus niger [2] = assay: Fungicidal activity against Aspergillus niger after 7 days by serial dilution technique; format: functional, organism-based
Candida albicans [3] = assay: Fungicidal activity against Candida albicans; format: functional, organism-based
Escherichia coli [4] = assay: Bactericidal activity against Escherichia coli; format: functional, organism-based
Candida albicans [5] = assay: Antifungal activity against Candida albicans after 2 days by serial dilution technique; format: functional
Staphylococcus aureus [6] = assay: Bactericidal activity against Staphylococcus aureus; format: functional, organism-based
Escherichia coli [7] = assay: Antibacterial activity against Escherichia coli after 24 hr by serial dilution technique; format: functional
Bacillus subtilis [8] = assay: Bactericidal activity against Bacillus subtilis; format: functional, organism-based
Aspergillus niger [9] = assay: Antifungal activity against Aspergillus niger after 7 days by serial dilution technique; format: functional
Bacillus subtilis [10] = assay: Antibacterial activity against Bacillus subtilis after 24 hr by serial dilution technique; format: functional

Row | SMILES | -logMIC (Staphylococcus aureus [1]) | Activity (Aspergillus niger [2]) | Activity (Candida albicans [3]) | Activity (Escherichia coli [4]) | -logMIC (Candida albicans [5]) | Activity (Staphylococcus aureus [6]) | -logMIC (Escherichia coli [7]) | Activity (Bacillus subtilis [8]) | -logMIC (Aspergillus niger [9]) | -logMIC (Bacillus subtilis [10])
1 | CCCCCCCOC(=O)c1ccccc1N [HEPTYL 2-AMINOBENZOATE] | 1.27 | Active | Active | Active | 1.58 | Active | 1.88 | Active | 1.58 | 1.88
2 | Nc1ccccc1C(=O)N(c1ccccc1)c1ccccc1 | 1.36 | Active | Active | Active | 1.36 | Active | 1.66 | Active | 1.66 | 2.27
3 | COC(=O)c1ccccc1N [METHYL ANTHRANILATE] | 1.08 | Active | Active | Active | 1.08 | Active | 1.69 | Active | 1.08 | 1.99
4 | CCCCCCOC(=O)c1ccccc1N [HEXYL 2-AMINOBENZOATE] | 1.25 | Active | Active | Active | 1.25 | Active | 1.85 | Active | 1.85 | 2.15
5 | CCN(CC)C(=O)c1ccccc1N | 1.19 | Active | Active | Active | 1.19 | Active | 1.19 | Active | 1.49 | 2.09
6 | CCn1cc(C(=O)O)c(=O)c2cc(F)c(N3CCNCC3)cc21 [NORFLOXACIN] | 3.33 | – | – | – | – | – | 3.33 | – | – | 3.33
7 | Cc1ccc(C)c(NC(=O)c2ccccc2N)c1 | 1.28 | Active | Active | Active | 1.3 | Active | 1.28 | Active | 1.28 | 2.19
8 | CCCCN(CCCC)C(=O)c1ccccc1N | 1.3 | Active | Active | Active | 1.3 | Active | 1.6 | Active | 1.6 | 2.2
9 | Nc1ccccc1C(=O)N1CCOCC1 [(2-AMINOPHENYL)(MORPHOLINO)METHANONE] | 1.22 | Active | Active | Active | 1.22 | Active | 1.52 | Active | 1.22 | 1.22
10 | Cc1ccc(NC(=O)c2ccccc2N)cc1 | 1.26 | Active | Active | Active | 1.26 | Active | 1.56 | Active | 1.26 | 2.16
11 | COc1ccc(NC(=O)c2ccccc2N)cc1 | 1.29 | Active | Active | Active | 1.29 | Active | 1.29 | Active | 1.29 | 2.19
12 | OC(Cn1cncn1)(Cn1cncn1)c1ccc(F)cc1F [FLUCONAZOLE] | – | – | – | – | 2.64 | – | – | – | 2.64 | –
